The test system of assay [1] is HTC116 cells (colon carcinoma). In words: MTT in vitro cell proliferation / combination assay, HTC116. The format is cell-based. The settings on record: HTC116, chemotherapeutic alone; read-out: Chemoth EC50. The method, then: (§1) A combination index score is calculated by the Chou and Talalay method (CalcuSyn software, Biosoft). The strength of synergy is scored using the ranking system Chou and Talalay: CI less than 0.8 indicates synergy, CI between 0.8 and 1.2 indicates additivity and CI greater than 1.2 indicates antagonism.
The EC50 values of representative combinations were also calculated. The individually measured EC50 values of the chemotherapeutic agent and the example compounds are compared to the EC50 value of the combination. The cell lines are characterised by tumor type.

Another assay deals with PIM-2 (Homo sapiens (Human), UniProt Q9P1W9). In words: PIM-2 biochemical assay (ADP Hunter). As to conditions: semi-quantitative; read-out: PIM2 IC50. From the text:
The biochemical assay to measure PIM-2 activity relies on the ADP Hunter assay kit (DiscoveRx Corp., Cat. #90-0077), that determines the amount of ADP as direct product of the kinase enzyme activity.

Another assay has as its target PIM-3 (Homo sapiens (Human), UniProt Q86V86). In words: PIM-3 biochemical assay (ADP Hunter). As to conditions: semi-quantitative; read-out: PIM3 IC50.
The test system of assay [2] is Bad S112 phosphorylation in H1299 cells overexpressing Pim1 (H1299Pim1). In words: Bad S112 phosphorylation inhibition assay (In Cell ELISA). The settings on record: Homo sapiens, NCI-H1299, semi-quantitative, read-out: EC50 BadP ELISA H1299 Pim1. It is filed as cell-based. Here is the method: Efficacy of compounds of the invention on the inhibition of Bad phosphorylation was measured by an In Cell ELISA. EC50 values were established for the tested compounds.
Cells: H1299 cells overexpressing Pim1 (H1299Pim1)
Cells were seeded in 15000 cells per 200 μl per well into 96-well plates and incubated for 16 h at 37° C., 5% CO2. On day two, nine serial 1:2 compound dilutions were made in DMSO in a 96-well plate. The compounds were added to duplicate wells in 96-well cell plates using a FX BECKMAN robot (Beckman Coulter) and incubated at 37° C. with CO2 atmosphere. After 4 hours, relative levels of Bad S112 phosphorylation were measured in Cell ELISA using SuperSignal ELISA Femto substrate (Pierce) and read on VICTOR (Perkin Elmer). EC50 values were calculated using ActivityBase from IDBS.

A further assay addresses PIM-1 (Homo sapiens (Human), UniProt P11309). In words: PIM-1 biochemical assay (ADP Hunter).
The subject of assay [3] is MV4:11 cells (leukemia, AML). In words: MTT in vitro cell proliferation / combination assay, MV4:11. It is filed as cell-based. Here is the method: as §1
(§2) The EC50 values of representative combinations were also calculated. The individually measured EC50 values of the chemotherapeutic agent and the example compounds are compared to the EC50 value of the combination. The cell lines are characterised by tumor type. […]

In the next assay the test system is SKMel19 cells (melanoma). In words: MTT in vitro cell proliferation / combination assay, SKMel19. The format is cell-based. Here is the method:
as §1, §2

The mark [4] stands for this setting: read-out: PIM1 IC50, semi-quantitative.
Where [5] appears, read: MV4:11, combination with GDC-0879.
[6] abbreviates: MV4:11, combination with GDC-0941.
Where [7] appears, read: MV4:11, combination with PD-0332991.
Setting [8] is: SKMel19, combination with GDC-0879.
Setting [9] is: SKMel19, combination with PD-0332991.

Read-outs that look alike come from different tables or passages of the source.

PIM-1, sequence (P11309 whole entry): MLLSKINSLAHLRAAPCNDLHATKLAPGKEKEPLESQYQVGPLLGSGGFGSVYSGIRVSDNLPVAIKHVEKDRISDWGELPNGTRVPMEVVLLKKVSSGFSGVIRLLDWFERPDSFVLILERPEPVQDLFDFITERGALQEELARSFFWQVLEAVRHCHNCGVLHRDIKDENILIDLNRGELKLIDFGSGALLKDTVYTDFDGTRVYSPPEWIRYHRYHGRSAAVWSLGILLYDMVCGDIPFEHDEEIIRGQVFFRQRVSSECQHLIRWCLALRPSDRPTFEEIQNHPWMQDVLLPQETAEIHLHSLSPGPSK
PIM-2, sequence (Q9P1W9 whole entry): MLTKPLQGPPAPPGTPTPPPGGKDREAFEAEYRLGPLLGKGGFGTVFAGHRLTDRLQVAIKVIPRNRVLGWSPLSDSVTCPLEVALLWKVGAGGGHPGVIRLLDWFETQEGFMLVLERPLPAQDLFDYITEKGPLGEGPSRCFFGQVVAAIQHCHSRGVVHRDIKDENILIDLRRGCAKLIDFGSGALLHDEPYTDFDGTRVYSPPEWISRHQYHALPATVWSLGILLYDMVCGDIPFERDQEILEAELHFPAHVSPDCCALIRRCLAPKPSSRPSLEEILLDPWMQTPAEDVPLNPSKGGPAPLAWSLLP

Consider `O=C(NOC[C@H](O)CO)c1ccc(F)c(F)c1Nc1ccc(I)cc1F` [PD-0325901, (R)—N-(2,3-dihydroxypropoxy)-3,4-difluoro-2-(2-fluoro-4-iodophenylamino)benz-amide, reference compound], for which the concentration giving a half-maximal response (EC50) – broadly, the midpoint of the concentration-response curve – in assay [1] stood at 1250 nM.

Turning to `CN1CCOc2c1c(N1CCC(N(C)C)CC1)nn1c(-c3cccc(OC(F)(F)F)c3)nnc21` [Example 5, Dimethyl-{1-[6-methyl-3-(3-trifluoromethoxy-phenyl)-7,8-dihydro-6H-9-oxa-1,2,3a,4,6-pentaaza-cyclopenta[a]naphthalen-5-yl]-piperidin-4-yl}-amine], the concentration for half-maximal inhibition (IC50) (in general, the concentration that gives 50% inhibition) at PIM-2 was 100 to 1000 nM; at PIM-3, 100 to 1000 nM; on PIM-1, below 100 nM. Moreover, the 50% effective concentration (EC50) in assay [2] lay within 250 to 1000 nM.

Regarding `CN1CCOc2c(N3CCC(CN)CC3)nn3c(-c4cccc(OC(F)(F)F)c4)nnc3c21` [Example 57, C-{1-[9-Methyl-3-(3-trifluoromethoxy-phenyl)-8,9-dihydro-7H-6-oxa-1,2,3a,4,9-pentaaza-cyclopenta[a]naphthalen-5-yl]-piperidin-4-yl}-methylamine], the IC50 is above 1000 nM at PIM-2, above 1000 nM on PIM-3 and below 100 nM on PIM-1 (setting [4]). Besides, the 50% effective concentration (EC50) in assay [2] fell in the range of 1000 to 10000 nM.

For `CN1CCOc2c(N3CCC4(CC3)CC(N)C4)nn3c(-c4cccc(OC(F)(F)F)c4)nnc3c21` [Example 66, 7-[9-Methyl-3-(3-trifluoromethoxy-phenyl)-8,9-dihydro-7H-6-oxa-1,2,3a,4,9-pentaaza-cyclopenta[a]naphthalen-5-yl]-7-aza-spiro[3.5]non-2-ylamine], the IC50 on PIM-2 was above 1000 nM; at PIM-3, 100 to 1000 nM; on PIM-1 (setting [4]), below 100 nM. In addition, the EC50 in assay [2] is 1000 to 10000 nM.

Turning to `CN1CCC(Nc2nn3c(-c4cccc(OC(F)(F)F)c4)nnc3c3c2N(C)CCO3)CC1` [Example 2, (1-Methyl-piperidin-4-yl)-[6-methyl-3-(3-trifluoromethoxy-phenyl)-7,8-dihydro-6H-9-oxa-1,2,3a,4,6-pentaaza-cyclopenta[a]naphthalen-5-yl]-amine], the IC50 on PIM-2 was 100 to 1000 nM; on PIM-3 it was 100 to 1000 nM; at PIM-1 (setting [4]), below 100 nM. Also, the concentration for a half-maximal effect (EC50) in assay [2] lay in the range of 250 to 1000 nM.

As for `CN1CCOc2c(NCC3CCNCC3)nn3c(-c4cccc(OC(F)(F)F)c4)nnc3c21` [Example 58, [9-Methyl-3-(3-trifluoromethoxy-phenyl)-8,9-dihydro-7H-6-oxa-1,2,3a,4,9-pentaaza-cyclopenta[a]naphthalen-5-yl]-piperidin-4-ylmethyl-amine], the results for the IC50 on PIM-2, on PIM-3 and on PIM-1 (setting [4]) were above 1000 nM, 100 to 1000 nM and below 100 nM, respectively. Further, the concentration giving a half-maximal response (EC50) in assay [2] lay in the range of 1000 to 10000 nM.

For the compound `FC(F)(F)Oc1cccc(-c2nnc3c4c(c(N5CCCCC5)nn23)OCCO4)c1` [Example 101, 5-Piperidin-1-yl-3-(3-trifluoromethoxy-phenyl)-7,8-dihydro-6,9-dioxa-1,2,3a,4-tetraaza-cyclopenta[a]naphthalene], the figures for the IC50 at PIM-2, on PIM-3 and at PIM-1 (setting [4]) were 100 to 1000 nM, 100 to 1000 nM and below 100 nM, respectively. In addition, the EC50 in assay [2] was in the range of 1000 to 10000 nM.

For the compound `CN1CCOc2c1c(NCC1CC1)nn1c(-c3cccc(OC(F)(F)F)c3)nnc21` [Example 7, Cyclopropylmethyl-[6-methyl-3-(3-trifluoromethoxy-phenyl)-7,8-dihydro-6H-9-oxa-1,2,3a,4,6-pentaaza-cyclopenta[a]naphthalen-5-yl]-amine], the 50% inhibitory concentration (IC50) was 100 to 1000 nM at PIM-2, below 100 nM at PIM-3, below 100 nM at PIM-1 and 25.2 nM at PIM-1 (read-out: PIM1 IC50). In addition, in assay [2], the EC50 was 1000 to 10000 nM.

Consider `CN1CCOc2c1c(NCC1CCNCC1)nn1c(-c3cccc(OC(F)(F)F)c3)nnc21` [Example 56, [6-Methyl-3-(3-trifluoromethoxy-phenyl)-7,8-dihydro-6H-9-oxa-1,2,3a,4,6-pentaaza-cyclopenta[a]naphthalen-5-yl]-piperidin-4-ylmethyl-amine], for which the concentration giving a half-maximal response (EC50) in assay [3] (Homo sapiens, MV4:11, example compound alone) amounted to 500 nM; in the assay on SKMel19 cells (melanoma) (Homo sapiens, SK-MEL19, SKMel19, example compound alone), 6000 nM. For the same compound, the “Combination Index (CI)” value worked out at 0.604 in assay [3] (setting [5]); 0.024 in assay [3] (setting [6]); 0.309 in assay [3] (setting [7]); 0.516 in the assay on SKMel19 cells (melanoma) (setting [8]); 0.568 with SKMel19 cells (melanoma) (setting [9]). Moreover, the Synergy result in assay [3] (setting [5]) was “++ (0.3<C1<0.7)”; in assay [3] (setting [6]), “++++ (CI<0.1)”; in assay [3] (setting [7]), “++ (0.3<C1<0.7)”; in the assay with SKMel19 cells (melanoma) (setting [8]), “++ (0.3<C1<0.7)”; in the assay on SKMel19 cells (melanoma) (setting [9]), “++ (0.3<C1<0.7)”. In addition, the IC50 at PIM-1 (setting [4]) was below 100 nM.

As for `CN1CCOc2c(N[C@H]3CC[C@H](O)CC3)nn3c(-c4cccc(OC(F)(F)F)c4)nnc3c21` [Example 20, 4-[9-Methyl-3-(3-trifluoromethoxy-phenyl)-8,9-dihydro-7H-6-oxa-1,2,3a,4,9-pentaaza-cyclopenta[a]naphthalen-5-ylamino]-cyclohexanol], the IC50 at PIM-2 is above 1000 nM; on PIM-3, 100 to 1000 nM; against PIM-1, 100 to 1000 nM. In assay [2], the EC50 was 250 to 1000 nM.

Regarding `CNC1CCN(c2nn3c(-c4cccc(OC(F)(F)F)c4)nnc3c3c2N(C)CCO3)CC1` [Example 62, Methyl-{1-[6-methyl-3-(3-trifluoromethoxy-phenyl)-7,8-dihydro-6H-9-oxa-1,2,3a,4,6-pentaaza-cyclopenta[a]naphthalen-5-yl]-piperidin-4-yl}-amine], the IC50 is 100 to 1000 nM on PIM-2, below 100 nM on PIM-3 and below 100 nM at PIM-1 (setting [4]). Moreover, the EC50 in assay [2] is below 250 nM.

Consider `CC(C)NCC1CCN(c2nn3c(-c4cccc(OC(F)(F)F)c4)nnc3c3c2OCCN3C)CC1` [Example 86, Isopropyl-{1-[9-methyl-3-(3-trifluoromethoxy-phenyl)-8,9-dihydro-7H-6-oxa-1,2,3a,4,9-pentaaza-cyclopenta[a]naphthalen-5-yl]-piperidin-4-ylmethyl}-amine], for which the figures for the IC50 on PIM-2, on PIM-3 and on PIM-1 were above 1000 nM, 100 to 1000 nM and 100 to 1000 nM, respectively. In assay [2], the half-maximal effective concentration (EC50) lay within 1000 to 10000 nM.

Consider `CN1CCC(CNc2nn3c(-c4cccc(OC(F)(F)F)c4)nnc3c3c2OCCN3C)CC1` [Example 17, (1-Methyl-piperidin-4-ylmethyl)-[9-methyl-3-(3-trifluoromethoxy-phenyl)-8,9-dihydro-7H-6-oxa-1,2,3a,4,9-pentaaza-cyclopenta[a]naphthalen-5-yl]-amine], for which the results for the concentration for half-maximal inhibition (IC50) on PIM-2, on PIM-3 and at PIM-1 (setting [4]) were above 1000 nM, 100 to 1000 nM and below 100 nM, respectively. Moreover, the concentration for a half-maximal effect (EC50) in assay [2] is 1000 to 10000 nM.

As for `CN1CCC(CNc2nn3c(-c4cccc(C#N)c4)nnc3c3c2N(C)CCO3)CC1` [Example 31, 3-{6-Methyl-5-[(1-methyl-piperidin-4-ylmethyl)-amino]-7,8-dihydro-6H-9-oxa-1,2,3a,4,6-pentaaza-cyclopenta[a]naphthalen-3-yl}-benzonitrile], the IC50 on PIM-2 was above 1000 nM; at PIM-3, 100 to 1000 nM; on PIM-1, 100 to 1000 nM. For the same compound, the EC50 in assay [2] lay within 1000 to 10000 nM.

The values are drawn from US9682991B2, “Tricyclic compounds for use as kinase inhibitors” (FUNDACIÓN CENTRO NACIONAL DE INVESTIGACIONES ONCOLOGICAS …, priority 2009, dated 2017).
